In ChEMBL document CHEMBL3779880, “In silico to in vitro screening of hydroxypyridinones as acetylcholinesterase inhibitors” (Bioorg Med Chem Lett, 2016):
Active and inactive are the calls of the source. The calls are words filed in the database; no cut-off is given here.

Columns and labels:
[1] = molecular target: Acetylcholinesterase (Electrophorus electricus) (UniProt O42275); assay: Reversible inhibition of electric eel AChE at 554 mM after 5 to 60 mins followed by addition of acetylthiocholine iodide by Ellman's method
Acetylcholinesterase (Electrophorus electricus), sequence (O42275 24-633 limits assumed): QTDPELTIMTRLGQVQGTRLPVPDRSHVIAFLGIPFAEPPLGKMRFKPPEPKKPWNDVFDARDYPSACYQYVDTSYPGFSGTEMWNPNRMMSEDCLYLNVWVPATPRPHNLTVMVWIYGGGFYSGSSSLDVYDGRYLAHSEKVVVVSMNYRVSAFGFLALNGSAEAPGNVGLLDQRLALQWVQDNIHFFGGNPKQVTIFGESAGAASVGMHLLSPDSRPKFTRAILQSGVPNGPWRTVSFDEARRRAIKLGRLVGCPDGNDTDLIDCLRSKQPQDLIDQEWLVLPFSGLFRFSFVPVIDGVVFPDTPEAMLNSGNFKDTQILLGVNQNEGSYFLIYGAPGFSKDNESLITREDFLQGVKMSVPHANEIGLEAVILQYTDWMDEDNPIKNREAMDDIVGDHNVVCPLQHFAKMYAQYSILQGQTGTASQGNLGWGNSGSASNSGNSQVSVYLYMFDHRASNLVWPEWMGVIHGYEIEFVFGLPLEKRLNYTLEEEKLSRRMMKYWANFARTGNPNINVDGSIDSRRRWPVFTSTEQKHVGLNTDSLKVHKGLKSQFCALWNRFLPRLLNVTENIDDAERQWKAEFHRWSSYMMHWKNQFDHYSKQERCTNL

[2] = molecular target: Acetylcholinesterase (Electrophorus electricus) (UniProt O42275); assay: Reversible inhibition of electric eel AChE incubated for 1 and 24 hrs by ESI-MS and TLC method
Acetylcholinesterase = Acetylcholinesterase (Electrophorus electricus, UniProt O42275)
Acetylcholinesterase, sequence (O42275 whole entry): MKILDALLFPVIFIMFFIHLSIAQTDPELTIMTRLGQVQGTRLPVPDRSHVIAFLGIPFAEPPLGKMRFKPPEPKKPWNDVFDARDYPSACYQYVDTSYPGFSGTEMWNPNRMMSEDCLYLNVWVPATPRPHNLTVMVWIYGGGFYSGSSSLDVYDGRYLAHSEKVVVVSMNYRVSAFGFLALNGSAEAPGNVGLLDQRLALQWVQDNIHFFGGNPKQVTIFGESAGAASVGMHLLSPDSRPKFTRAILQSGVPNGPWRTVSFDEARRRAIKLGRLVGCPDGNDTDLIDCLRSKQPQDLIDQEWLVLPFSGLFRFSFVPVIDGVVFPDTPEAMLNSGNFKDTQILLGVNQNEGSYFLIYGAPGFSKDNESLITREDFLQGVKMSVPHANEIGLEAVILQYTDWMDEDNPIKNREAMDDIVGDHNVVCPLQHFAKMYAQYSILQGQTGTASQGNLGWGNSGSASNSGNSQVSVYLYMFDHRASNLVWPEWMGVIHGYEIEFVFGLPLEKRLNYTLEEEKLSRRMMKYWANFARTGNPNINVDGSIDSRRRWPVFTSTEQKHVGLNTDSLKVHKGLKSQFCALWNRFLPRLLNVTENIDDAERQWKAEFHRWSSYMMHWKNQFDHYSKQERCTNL
Description: Inhibition of electric eel AChE using acetylthiocholine iodide as substrate by Ellman's method

[3] = molecular target: Acetylcholinesterase (Electrophorus electricus) (UniProt O42275); assay: Reversible inhibition of electric eel AChE at 92 mM after 5 to 60 mins followed by addition of acetylthiocholine iodide by Ellman's method
[4] = Metal chelating activity assessed as Fe3+/compound complex formation incubated with electric eel AChE for 1 and 24 hrs measured over 60 mins by TLC analysis; format: physicochemical

SMILES	inhibition [1]	inhibition [2]	IC50 (Acetylcholinesterase) [µM]	inhibition [3]	Activity [4]
Cc1c(OCc2ccc(OC(=O)N(C)C)cc2)c(=O)ccn1-c1ccccc1	Active	Active	217	–	–
Cc1ccc(OC(=O)N(C)C)cc1 [P-TOLYL DIMETHYLCARBAMATE]	–	–	1280	–	–
Cc1c(O)c(=O)ccn1-c1ccc(OC(=O)N(C)C)cc1	–	Active	348	Active	Active
